The values below come from patent US20170334899A1, “AMINO-SUBSTITUTED ISOTHIAZOLES” (Bayer Pharma Aktiengesellschaft, priority 2014, published 2017).

For the assay, the system named is human cervical tumor cell line HeLa (ATCC CCL-2). The experiment in a line: SAC-Formation - Nocodazole-Induced Assay. In kind it is cell-based. To be noted: Homo sapiens, HeLa, 24 h, HeLa cells, nocodazole 0.1 μg/ml together with test compound, decrease of mitotic cells (phospho-histone H3 Ser10). In outline: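 Loss of phospho-histone H3 Ser10-positive cells, counted against Hoechst-stained nuclei by high-content imaging, marked mitotic breakthrough. Compounds (0.005–20 μM, 0.5% DMSO) were co-dosed with 0.1 μg/ml nocodazole onto HeLa cells for 24 h at 37 °C. Curves were fitted with a four-parameter Hill equation.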
As to `COCCOc1ccc(NC(=O)c2c(C)nsc2Nc2nc3c(C(F)(F)F)cccc3s2)cc1F` [Example 1, N-[3-Fluoro-4-(2-methoxyethoxy)phenyl]-3-methyl-5-{[4-(trifluoromethyl)-1,3-benzothiazol-2-yl]amino}-1,2-thiazole-4-carboxamide], the IC50 stood at 72 nM.
`Cc1nsc(Nc2nc3c(C(F)(F)F)cccc3s2)c1C(=O)Nc1ccc(OCCO)nc1` [Example 2, N-[6-(2-Hydroxyethoxy)pyridin-3-yl]-3-methyl-5-{[4-(trifluoromethyl)-1,3-benzo-thiazol-2-yl]amino}-1,2-thiazole-4-carboxamide]: the half-maximal inhibitory concentration (IC50) came to 560 nM.
Turning to `COCCOc1ccc(NC(=O)c2c(C)nsc2Nc2nc3c(C(F)(F)F)cccc3s2)cn1` [Example 3, N-[6-(2-Methoxyethoxy)pyridin-3-yl]-3-methyl-5-{[4-(trifluoromethyl)-1,3-benzo-thiazol-2-yl]amino}-1,2-thiazole-4-carboxamide], the IC50 came out at 230 nM.
Take `Cc1nsc(Nc2nc3c(C(F)(F)F)cccc3s2)c1C(=O)Nc1ccc(OCCO)c(F)c1` [Example 4, N-[3-Fluoro-4-(2-hydroxyethoxy)phenyl]-3-methyl-5-{[4-(trifluoromethyl)-1,3-benzothiazol-2-yl]amino}-1,2-thiazole-4-carboxamide]: the IC50 is 980 nM.
The result for `Cc1nsc(Nc2cnc(C(F)(F)F)cn2)c1C(=O)Nc1ccc(OC2CCN(C(=O)OC(C)(C)C)CC2)nc1` [Example 5, tert-Butyl 4-[(5-{[(3-methyl-5-{[5-(trifluoromethyl)pyrazin-2-yl]amino}-1,2-thiazol-4-yl)carbonyl]amino}pyridin-2-yl)oxy]piperidine-1-carboxylate] reads 43 nM.
As for `Cc1nsc(Nc2cc(C#N)ccn2)c1C(=O)Nc1ccc(OC2CCCNC2)nc1` (stereo not drawn) [Example 35, 5-[(4-Cyanopyridin-2-yl)amino]-3-methyl-N-[6-(piperidin-3-yloxy)pyridin-3-yl]-1,2-thiazole-4-carboxamide], the figure is 15000 nM; as for `Cc1nsc(Nc2ccc(C#N)cn2)c1C(=O)Nc1ccc(OC2CCCN(C(=O)OC(C)(C)C)C2)nc1` (stereo not drawn) [Example 36, tert-Butyl 3-({5-[({5-[(5-cyanopyridin-2-yl)amino]-3-methyl-1,2-thiazol-4-yl}-carbonyl)amino]pyridin-2-yl}oxy)piperidine-1-carboxylate], 210 nM.
Turning to `Cc1nsc(Nc2ccc(C#N)cn2)c1C(=O)Nc1ccc(OC2CCCNC2)nc1` (stereo not drawn) [Example 37, 5-[(5-Cyanopyridin-2-yl)amino]-3-methyl-N-[6-(piperidin-3-yloxy)pyridin-3-yl]-1,2-thiazole-4-carboxamide], the IC50 was found to be 4200 nM.
For the molecule `Cc1nsc(Nc2ccc(C#N)cn2)c1C(=O)Nc1ccc(OC2CCCN(CCF)C2)nc1` (stereo not drawn) [Example 38, 5-[(5-Cyanopyridin-2-yl)amino]-N-(6-{[1-(2-fluoroethyl)piperidin-3-yl]oxy}pyridin-3-yl)-3-methyl-1,2-thiazole-4-carboxamide], the IC50 came to 1800 nM.
As for `Cc1nsc(Nc2ccc(C#N)cn2)c1C(=O)Nc1ccc(OC2CCCN(CC(F)F)C2)nc1` (stereo not drawn) [Example 39, 5-[(5-Cyanopyridin-2-yl)amino]-N-(6-{[1-(2,2-difluoroethyl)piperidin-3-yl]oxy}-pyridin-3-yl)-3-methyl-1,2-thiazole-4-carboxamide], the figure is 15 nM; as for `Cc1nsc(Nc2ccc(C#N)cn2)c1C(=O)Nc1ccc(OC2CCCN(CC(F)(F)F)C2)nc1` (stereo not drawn) [Example 40, 5-[(5-Cyanopyridin-2-yl)amino]-3-methyl-N-(6-{[1-(2,2,2-trifluoroethyl)piperidin-3-yl]oxy}pyridin-3-yl)-1,2-thiazole-4-carboxamide], 150 nM.
Take `Cc1nsc(Nc2cnccn2)c1C(=O)Nc1ccc(OC2CCCN(C(=O)OC(C)(C)C)C2)nc1` (stereo not drawn) [Example 41, tert-Butyl 3-{[5-({[3-methyl-5-(pyrazin-2-ylamino)-1,2-thiazol-4-yl]carbonyl}amino)-pyridin-2-yl]oxy}piperidine-1-carboxylate]: the IC50 came to 240 nM.
On to `Cc1nsc(Nc2cnc3ccccc3n2)c1C(=O)Nc1ccc(OCCCNC(=O)OC(C)(C)C)nc1` [Example 42, tert-Butyl (3-{[5-({[3-methyl-5-(quinoxalin-2-ylamino)-1,2-thiazol-4-yl]carbonyl}-amino)pyridin-2-yl]oxy}propyl)carbamate], for which the IC50 came out at 820 nM.
As for `Cc1nsc(Nc2cc(C#N)ccn2)c1C(=O)Nc1ccc(OCCCNC(=O)OC(C)(C)C)nc1` [Example 43, tert-Butyl [3-({5-[({5-[(4-cyanopyridin-2-yl)amino]-3-methyl-1,2-thiazol-4-yl}-carbonyl)amino]pyridin-2-yl}oxy)propyl]carbamate], the figure is 130 nM; as for `Cc1nsc(Nc2cc(C#N)ccn2)c1C(=O)Nc1ccc(OCCCN)nc1` [Example 44, N-[6-(3-Aminopropoxy)pyridin-3-yl]-5-[(4-cyanopyridin-2-yl)amino]-3-methyl-1,2-thiazole-4-carboxamide], 20000 nM.
In the case of `Cc1nsc(Nc2cc(C#N)ccn2)c1C(=O)Nc1ccc(OCCCNCC(F)F)nc1` [Example 45, 5-[(4-Cyanopyridin-2-yl)amino]-N-(6-{3-[(2,2-difluoroethyl)amino]propoxy}pyridin-3-yl)-3-methyl-1,2-thiazole-4-carboxamide], the IC50 turned out to be 3500 nM.
The result for `Cc1nsc(Nc2ccc(C#N)cn2)c1C(=O)Nc1ccc(OCCCNC(=O)OC(C)(C)C)nc1` [Example 46, tert-Butyl [3-({5-[({5-[(5-cyanopyridin-2-yl)amino]-3-methyl-1,2-thiazol-4-yl}-carbonyl)amino]pyridin-2-yl}oxy)propyl]carbamate] reads 41 nM; that for `Cc1nsc(Nc2cnccn2)c1C(=O)Nc1ccc(OCCCNC(=O)OC(C)(C)C)nc1` [Example 47, tert-Butyl (3-{[5-({[3-methyl-5-(pyrazin-2-ylamino)-1,2-thiazol-4-yl]carbonyl}-amino)pyridin-2-yl]oxy}propyl)carbamate], 3600 nM; that for `Cc1nsc(Nc2cnccn2)c1C(=O)Nc1ccc(OCCCN)nc1` [Example 48, N-[6-(3-Aminopropoxy)pyridin-3-yl]-3-methyl-5-(pyrazin-2-ylamino)-1,2-thiazole-4-carboxamide], 5800 nM.
As for `Cc1nsc(Nc2cnc3ccccc3n2)c1C(=O)Nc1cccc(C(=O)OC(C)(C)C)c1` [Example 49, tert-Butyl 3-({[3-methyl-5-(quinoxalin-2-ylamino)-1,2-thiazol-4-yl]carbonyl}amino)-benzoate], the figure is 29 nM; as for `COC(=O)c1cccc(NC(=O)c2c(C)nsc2Nc2cnc3ccccc3n2)c1` [Example 50, Methyl 3-({[3-methyl-5-(quinoxalin-2-ylamino)-1,2-thiazol-4-yl]carbonyl}amino)-benzoate], 4500 nM; as for `Cc1nsc(Nc2cnc3ccccc3n2)c1C(=O)Nc1cccc(C(=O)O)c1` [Example 51, 3-({[3-Methyl-5-(quinoxalin-2-ylamino)-1,2-thiazol-4-yl]carbonyl}amino)benzoic acid], 20000 nM.
`Cc1nsc(Nc2cnc3ccccc3n2)c1C(=O)Nc1cccc(C(=O)N2CCOCC2)c1` [Example 52, 3-Methyl-N-[3-(morpholin-4-ylcarbonyl)phenyl]-5-(quinoxalin-2-ylamino)-1,2-thiazole-4-carboxamide]: the IC50 was 28 nM.
As for `Cc1nsc(Nc2cnc3ccccc3n2)c1C(=O)Nc1cccc(C(=O)NC(C)(C)C)c1` [Example 53, N-[3-(tert-Butylcarbamoyl)-phenyl]-3-methyl-5-(quinoxalin-2-ylamino)-1,2-thiazole-4-carboxamide], the figure is 950 nM; as for `Cc1nsc(Nc2cnc3ccccc3n2)c1C(=O)Nc1cccc(C(=O)NCC(=O)OC(C)(C)C)c1` [Example 54, tert-Butyl N-[3-({[3-methyl-5-(quinoxalin-2-ylamino)-1,2-thiazol-4-yl]carbonyl}amino)-benzoyl]glycinate], 990 nM; as for `Cc1nsc(Nc2cnc3ccccc3n2)c1C(=O)Nc1cccc(C(=O)N2CCN(C(=O)OC(C)(C)C)CC2)c1` [Example 55, tert-Butyl 4-[3-({[3-methyl-5-(quinoxalin-2-ylamino)-1,2-thiazol-4-yl]carbonyl}amino)-benzoyl]piperazine-1-carboxylate], 930 nM.
In the case of `Cc1nsc(Nc2cnc3ccccc3n2)c1C(=O)Nc1cccc(C(=O)N[C@@H](CCC(N)=O)C(=O)OC(C)(C)C)c1` [Example 56, tert-butyl N^2-[3-({[3-methyl-5-(quinoxalin-2-ylamino)-1,2-thiazol-4-yl]carbonyl}amino)-benzoyl]glutaminate], the IC50 is 1200 nM.
As to `Cc1nsc(Nc2cnc3ccccc3n2)c1C(=O)Nc1cccc(C(=O)N[C@H](C(=O)OC(C)(C)C)[C@@H](C)OC(C)(C)C)c1` [Example 57, tert-Butyl O-tert-butyl-N-[3-({[3-methyl-5-(quinoxalin-2-ylamino)-1,2-thiazol-4 yl]carbonyl}amino)-benzoyl]threoninate], the IC50 worked out at 340 nM.
Take `Cc1nsc(Nc2cnc(C(F)(F)F)cn2)c1C(=O)Nc1ccc(F)c(OC[C@H]2CCCN(CC(F)F)C2)c1` [Example 400, N-(3-{[(3S)-1-(2,2-difluoroethyl)piperidin-3-yl]methoxy}-4-fluorophenyl)-3-methyl-5-{[5-(trifluoromethyl)pyrazin-2-yl]amino}-1,2-thiazole-4-carboxamide]: the IC50 is 81 nM.
As for `Cc1nsc(Nc2cnc(C(F)(F)F)cn2)c1C(=O)Nc1ccc(OCC2CCN(CC(F)F)CC2(F)F)nc1` (stereo not drawn) [Example 401, N-(6-{[1-(2,2-difluoroethyl)-3,3-difluoropiperidin-4-yl]methoxy}pyridin-3-yl)-3-methyl-5-{[5-(trifluoromethyl)pyrazin-2-yl]amino}-1,2-thiazole-4-carboxamide], the figure is 27 nM.

Broadly, the IC50 is the point on the concentration scale where inhibition reaches its midpoint.
